ChEMBL document CHEMBL4804282, “Quinoline-based compounds and methods of inhibiting cdk8/19” (2020)
Each block holds one compound with its values, some of them ahead of it. Calls of active or inactive are those of the source. No cut-off for these calls is given here.

Columns and labels:
[1] = target: T1, Myosin-IIIb (Homo sapiens) (UniProt Q8WXR4); test: Inhibition of human MYO3B by DiscoverX assay
T1 sequence (whole entry): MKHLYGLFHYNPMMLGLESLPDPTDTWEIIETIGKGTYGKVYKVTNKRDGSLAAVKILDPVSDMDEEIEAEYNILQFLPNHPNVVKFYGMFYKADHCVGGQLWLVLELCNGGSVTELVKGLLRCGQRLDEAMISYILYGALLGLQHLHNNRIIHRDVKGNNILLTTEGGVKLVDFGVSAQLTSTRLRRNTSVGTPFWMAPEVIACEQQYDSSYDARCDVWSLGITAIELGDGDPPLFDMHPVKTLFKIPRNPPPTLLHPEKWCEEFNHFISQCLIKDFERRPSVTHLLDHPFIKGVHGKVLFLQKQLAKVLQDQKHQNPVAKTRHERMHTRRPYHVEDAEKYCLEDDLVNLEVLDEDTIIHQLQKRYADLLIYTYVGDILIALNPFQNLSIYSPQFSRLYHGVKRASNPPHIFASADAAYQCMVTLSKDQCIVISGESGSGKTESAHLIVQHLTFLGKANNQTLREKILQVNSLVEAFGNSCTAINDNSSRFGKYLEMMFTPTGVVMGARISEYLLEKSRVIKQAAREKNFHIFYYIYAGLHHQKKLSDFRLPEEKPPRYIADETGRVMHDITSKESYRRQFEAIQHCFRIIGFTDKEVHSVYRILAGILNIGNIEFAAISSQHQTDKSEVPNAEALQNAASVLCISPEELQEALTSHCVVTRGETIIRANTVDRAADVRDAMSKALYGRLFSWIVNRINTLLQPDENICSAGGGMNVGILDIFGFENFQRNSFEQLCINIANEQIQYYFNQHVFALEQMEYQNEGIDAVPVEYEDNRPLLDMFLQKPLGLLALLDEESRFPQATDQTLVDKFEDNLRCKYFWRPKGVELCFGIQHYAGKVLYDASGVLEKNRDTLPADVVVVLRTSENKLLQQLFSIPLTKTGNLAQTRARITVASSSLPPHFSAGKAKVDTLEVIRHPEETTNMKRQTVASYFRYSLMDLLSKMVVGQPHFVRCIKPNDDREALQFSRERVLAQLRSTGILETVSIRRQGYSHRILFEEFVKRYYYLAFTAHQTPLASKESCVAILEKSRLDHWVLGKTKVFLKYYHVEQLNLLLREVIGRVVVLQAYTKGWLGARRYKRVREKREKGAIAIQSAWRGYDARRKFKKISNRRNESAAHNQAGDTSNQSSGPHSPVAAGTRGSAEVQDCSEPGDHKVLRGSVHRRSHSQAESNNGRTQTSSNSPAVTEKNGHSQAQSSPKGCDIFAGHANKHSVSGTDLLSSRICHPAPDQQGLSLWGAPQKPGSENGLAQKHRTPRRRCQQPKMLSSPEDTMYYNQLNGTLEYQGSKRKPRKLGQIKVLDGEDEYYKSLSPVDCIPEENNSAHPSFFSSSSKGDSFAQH

[2] = Metabolic stability of compound in human hepatocytes assessed as metabolic conversion rate by LC/MS/MS analysis; assay type: ADME, cell-based, Hepatocyte
[3] = AUC in female FVB mouse at 27 mg/kg, ip by LC/MS/MS analysis; assay type: ADME, organism-based; set-up: dose 27 mg/kg; settings: in vivo
[4] = Elimination rate in female FVB mouse at 27 mg/kg, ip by LC/MS/MS analysis; assay type: ADME, organism-based; settings: in vivo
[5] = Half-life in female FVB mouse at 27 mg/kg, ip by LC/MS/MS analysis; assay type: ADME, organism-based; settings: in vivo
[6] = Inhibition of prostate specific antigen (PSA) production in human LNCaP C4-2 cells measured after 4 days by ELISA assay; assay type: functional, cell-based; settings: LNCaP C4-2, 96 h
[7] = target: Cyclin-dependent kinase 8 (Homo sapiens) (UniProt P49336); test: Inhibition of CDK8 in TNF-alpha-induced HEK293 cells at 1 uM by NF-kappaB reporter assay relative to control; assay type: cell-based
[8] = target: Cyclin-dependent kinase 8 (Homo sapiens) (UniProt P49336); test: Inhibition of human CDK8 at 2000 nM by KINOMEscan assay
[9] = target: Cyclin-dependent kinase 19 (Homo sapiens) (UniProt Q9BWU1); test: Inhibition of human CDK19 at 2000 nM by KINOMEscan assay
[10] = target: T2, Serine/threonine-protein kinase haspin (Homo sapiens) (UniProt Q8TF76); test: Inhibition of human HASPIN at 2000 nM by KINOMEscan assay
T2 sequence (whole entry): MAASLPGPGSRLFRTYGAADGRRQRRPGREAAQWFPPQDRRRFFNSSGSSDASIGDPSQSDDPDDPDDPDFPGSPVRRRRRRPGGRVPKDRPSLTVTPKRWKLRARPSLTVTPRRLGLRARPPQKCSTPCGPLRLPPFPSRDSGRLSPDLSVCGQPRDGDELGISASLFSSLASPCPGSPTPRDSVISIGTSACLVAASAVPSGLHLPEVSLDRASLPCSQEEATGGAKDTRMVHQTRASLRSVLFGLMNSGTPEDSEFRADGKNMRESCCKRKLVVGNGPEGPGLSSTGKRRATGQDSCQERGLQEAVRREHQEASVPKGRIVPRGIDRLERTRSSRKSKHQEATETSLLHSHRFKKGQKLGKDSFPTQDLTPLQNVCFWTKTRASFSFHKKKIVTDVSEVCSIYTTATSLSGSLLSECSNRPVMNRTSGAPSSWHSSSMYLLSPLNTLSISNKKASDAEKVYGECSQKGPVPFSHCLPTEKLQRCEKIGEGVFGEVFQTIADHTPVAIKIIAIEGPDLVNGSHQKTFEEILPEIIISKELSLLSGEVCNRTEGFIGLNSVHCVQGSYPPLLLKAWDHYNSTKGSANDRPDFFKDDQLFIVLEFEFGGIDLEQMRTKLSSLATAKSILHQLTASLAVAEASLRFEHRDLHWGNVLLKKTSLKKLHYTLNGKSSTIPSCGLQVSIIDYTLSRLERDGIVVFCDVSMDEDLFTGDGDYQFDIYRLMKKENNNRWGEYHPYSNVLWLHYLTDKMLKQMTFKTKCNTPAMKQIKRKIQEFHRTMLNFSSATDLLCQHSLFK

[11] = target: T3, Mitogen-activated protein kinase kinase kinase kinase 2 (Homo sapiens) (UniProt Q12851); test: Inhibition of human MAP4K2 at 2000 nM by KINOMEscan assay
T3 sequence (whole entry): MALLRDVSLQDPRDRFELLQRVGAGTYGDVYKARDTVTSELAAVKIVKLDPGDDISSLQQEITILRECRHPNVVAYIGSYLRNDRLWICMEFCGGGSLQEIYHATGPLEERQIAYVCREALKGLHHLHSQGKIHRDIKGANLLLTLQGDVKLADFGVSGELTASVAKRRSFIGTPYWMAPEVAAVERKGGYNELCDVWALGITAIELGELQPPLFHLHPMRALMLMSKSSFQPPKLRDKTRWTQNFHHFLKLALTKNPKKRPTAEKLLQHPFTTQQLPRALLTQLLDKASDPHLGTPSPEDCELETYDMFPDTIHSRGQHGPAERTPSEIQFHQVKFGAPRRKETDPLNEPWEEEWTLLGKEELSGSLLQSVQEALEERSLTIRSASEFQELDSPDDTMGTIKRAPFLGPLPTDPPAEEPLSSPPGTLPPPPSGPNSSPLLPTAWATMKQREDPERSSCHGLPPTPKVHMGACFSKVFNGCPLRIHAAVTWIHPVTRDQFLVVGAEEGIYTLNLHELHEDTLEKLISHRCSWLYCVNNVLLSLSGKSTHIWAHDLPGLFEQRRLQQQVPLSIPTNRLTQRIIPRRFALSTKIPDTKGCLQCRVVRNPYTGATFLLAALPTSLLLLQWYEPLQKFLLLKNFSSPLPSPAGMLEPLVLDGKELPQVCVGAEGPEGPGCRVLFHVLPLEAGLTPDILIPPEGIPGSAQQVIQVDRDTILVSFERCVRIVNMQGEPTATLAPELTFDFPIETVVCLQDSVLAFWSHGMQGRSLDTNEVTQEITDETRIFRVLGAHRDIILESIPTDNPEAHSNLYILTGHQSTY

[12] = target: T1, Myosin-IIIb (Homo sapiens); test: Inhibition of human MYO3B at 2000 nM by KINOMEscan assay
[13] = target: T4, Cyclin-dependent kinase 8/19 (Homo sapiens) (UniProt P49336+Q9BWU1); test: Inhibition of CDK8/CDK19 in HEK293 cells assessed as reduction in JUN expression at 1 uM incubated for 2 hrs and measured after 24 hrs of compound wash-off; assay type: cell-based
[14] = target: T4, Cyclin-dependent kinase 8/19 (Homo sapiens); test: Inhibition of CDK8/CDK19 in HEK293 cells assessed as reduction in MYC expression at 1 uM incubated for 2 hrs and measured after 24 hrs of compound wash-off; assay type: cell-based
[15] = Elimination rate in female FVB mouse at 19 mg/kg, ip by LC/MS/MS analysis; assay type: ADME, organism-based; settings: in vivo
[16] = AUC (0-8 h) in female FVB mouse at 30 mg/kg, po; assay type: ADME, organism-based; set-up: time < 8 hr, route oral, dose 30 mg/kg; settings: in vivo
[17] = Half-life in female FVB mice at 30 mg/kg, po; assay type: ADME, organism-based; settings: mouse, in vivo
[18] = system: LNCaP C4-2; test: Antitumor activity against human C4-2 cells xenografted in male NcrNU mouse assessed as decrease in PSA mRNA levels in tumor at 40 mg/kg, po administered for 4 days; assay type: functional, organism-based
[19] = Drug uptake in tumor of male NcrNU mouse xenografted with human C4-2 cells at 40 mg/kg, po administered for 4 days; assay type: ADME, organism-based, Neoplasm, LNCaP C4-2; settings: in vivo, 96 h
[20] = system: 4T1; test: Antitumour activity against mouse 4T1 cells xenografted in female Balb/c mouse assessed as increase in animal survival at 40 mg/kg, po administered twice per day; assay type: functional, organism-based
[21] = Ratio of tumor to blood biodistribution in male NcrNU mouse xenografted with 22Rv1 human xenografts at 20 mg/kg, ip; assay type: ADME, organism-based, Serum/Tumor

Chain of Cyclin-dependent kinase 8 (Homo sapiens) (P49336 whole entry): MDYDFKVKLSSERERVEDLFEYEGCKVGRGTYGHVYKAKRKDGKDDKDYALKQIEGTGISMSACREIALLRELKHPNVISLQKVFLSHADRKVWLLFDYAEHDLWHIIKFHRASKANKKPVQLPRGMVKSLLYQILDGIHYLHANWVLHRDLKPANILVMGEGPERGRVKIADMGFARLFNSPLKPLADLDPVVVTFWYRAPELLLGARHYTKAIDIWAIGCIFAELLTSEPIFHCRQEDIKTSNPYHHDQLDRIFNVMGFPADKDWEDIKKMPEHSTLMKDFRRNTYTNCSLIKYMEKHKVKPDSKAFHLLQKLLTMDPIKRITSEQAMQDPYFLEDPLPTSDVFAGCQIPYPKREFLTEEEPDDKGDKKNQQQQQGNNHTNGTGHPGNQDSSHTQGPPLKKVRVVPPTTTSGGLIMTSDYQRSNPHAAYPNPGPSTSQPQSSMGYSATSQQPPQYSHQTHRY
T4 sequence (P49336 whole entry, looked up): as the sequence (P49336 whole entry) above
T4 sequence (Q9BWU1 whole entry, looked up): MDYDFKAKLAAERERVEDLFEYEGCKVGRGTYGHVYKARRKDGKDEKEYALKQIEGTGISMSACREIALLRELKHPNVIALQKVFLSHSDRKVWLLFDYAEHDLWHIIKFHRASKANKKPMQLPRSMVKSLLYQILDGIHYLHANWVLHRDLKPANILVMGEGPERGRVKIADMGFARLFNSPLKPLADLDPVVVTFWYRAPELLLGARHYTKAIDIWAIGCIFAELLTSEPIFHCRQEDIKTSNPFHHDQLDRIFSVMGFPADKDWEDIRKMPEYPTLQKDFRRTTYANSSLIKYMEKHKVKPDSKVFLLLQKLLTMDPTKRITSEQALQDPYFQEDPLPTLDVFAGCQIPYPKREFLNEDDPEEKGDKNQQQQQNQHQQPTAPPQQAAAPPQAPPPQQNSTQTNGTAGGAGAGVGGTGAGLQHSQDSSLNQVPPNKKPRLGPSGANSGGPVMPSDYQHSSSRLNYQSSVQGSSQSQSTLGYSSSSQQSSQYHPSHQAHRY
Chain of Cyclin-dependent kinase 19 (Homo sapiens) (Q9BWU1 whole entry): as the sequence (Q9BWU1 whole entry, looked up) above

inhibition [1]: inactive
Stabilty [2]: Unstable
AUC [3]: 1760 ng·h/mL
k el [4]: 0.00111 s⁻¹
half-life [5]: 0.17 h
IC50 [6]: 222 nM
Compound: CN1CCN(C(=O)c2ccc3cc(CCNc4ncnc5ccc(C#N)cc45)ccc3c2)CC1 [SENEXIN B]

inhibition [7]: 8%
Compound: Clc1ccc2nccc(NCCc3ccccc3)c2c1

inhibition [8]: > 65%
inhibition [9]: > 65%
inhibition [10]: > 65%
inhibition [11]: > 65%
inhibition [12]: > 65%
inhibition [13]: Active
inhibition [14]: Active
Stabilty [2]: Stable
k el [15]: 0.000261 s⁻¹
IC50 [6]: 82 nM
AUC(0-t) at 8 h [16]: 817 ng·h/mL
half-life [17]: 3.8 h
Drug uptake [19]: Active
Kp [21]: 5
Compound: CN1CCN(C(=O)c2ccc3cc(CCNc4ccnc5ccc(C#N)cc45)ccc3c2)CC1
Activity [18]: Active
Activity [20]: Active

inhibition [7]: 10%
Compound: Brc1ccc2nccc(NCCc3ccccc3)c2c1
